In patent EP4321514B1, “COMPOUND HAVING ALK INHIBITORY ACTIVITY, PREPARATION METHOD THEREFOR AND USE THEREOF” (CGeneTech (Suzhou, China) Co., Ltd., priority 2021, dated 2022) one finds IC50 data, which are given here for three compounds.

One assay has as its target T1, ALK kinase (Homo sapiens, UniProt Q9UM73).
T1 construct: purchased Thermo Scientific
The experiment in a line: ALK kinase inhibition test. Type of assay: biochemical. To be noted: 0.4 ng/well ALK kinase, 5 µM ATP, fluorescence 665 nm/615 nm. On the procedure:
The inhibitory activity of the compound in the present application on ALK kinase will be determined through in vitro tests, which can be represented by IC50 value.
4 µL of the diluted solution of the test compound and 2 µL of 0.4 ng/well ALK kinase solution (Thermo Scientific) were added into reaction wells in turn, incubated for 10 min at room temperature, then 4 µL of 0.7 µM biotin-labeled tyrosine kinase substrate and 5 µM ATP solution were added to start the kinase reaction.
Software Graphpad Prism 6 was used to fit an IC50 curve and calculate an IC50 value.

In assay [1] the test system is human anaplastic large cell lymphoma cell Karpas 299. In words: ALK gene fusion cell proliferation inhibition test (CCK-8). Format: cell-based. The following applies: 72 hours incubation, CCK-8, absorbance at 450 nm. As for the experimental part:
The 96-well culture plate was placed in a 5 % carbon dioxide incubator at 37 °C to be cultured overnight. A test compound was formulated into a 10 mM storage solution with DMSO, and the 10mM storage solution was gradually diluted with DMSO at a dilution ration of 1:4 to obtain 9 concentration gradients of solutions of the test compound. The test compound was diluted with culture medium to 5 times the set final concentration of corresponding action, and the diluted solution of the test compound was added at 25 µL/well to corresponding cell wells according to the set compound layout, and then incubated in a 5 % carbon dioxide incubator at 37 °C for 72 hours. After 72 hours, 10 µL of CCK-8 was added into a cell culture medium, and the culture solution was sucked from adherent cells, then a freshly prepared CCK-8 detection solution was added and the cells were incubated in a 37 °C incubator for 1-4 hours. The absorbance at 450 nm wavelength on the SpectraMax i3X Microplate Reader was measured after gently shaking, with the absorbance at 650 nm as a reference.

T1 sequence (Q9UM73 19-1620): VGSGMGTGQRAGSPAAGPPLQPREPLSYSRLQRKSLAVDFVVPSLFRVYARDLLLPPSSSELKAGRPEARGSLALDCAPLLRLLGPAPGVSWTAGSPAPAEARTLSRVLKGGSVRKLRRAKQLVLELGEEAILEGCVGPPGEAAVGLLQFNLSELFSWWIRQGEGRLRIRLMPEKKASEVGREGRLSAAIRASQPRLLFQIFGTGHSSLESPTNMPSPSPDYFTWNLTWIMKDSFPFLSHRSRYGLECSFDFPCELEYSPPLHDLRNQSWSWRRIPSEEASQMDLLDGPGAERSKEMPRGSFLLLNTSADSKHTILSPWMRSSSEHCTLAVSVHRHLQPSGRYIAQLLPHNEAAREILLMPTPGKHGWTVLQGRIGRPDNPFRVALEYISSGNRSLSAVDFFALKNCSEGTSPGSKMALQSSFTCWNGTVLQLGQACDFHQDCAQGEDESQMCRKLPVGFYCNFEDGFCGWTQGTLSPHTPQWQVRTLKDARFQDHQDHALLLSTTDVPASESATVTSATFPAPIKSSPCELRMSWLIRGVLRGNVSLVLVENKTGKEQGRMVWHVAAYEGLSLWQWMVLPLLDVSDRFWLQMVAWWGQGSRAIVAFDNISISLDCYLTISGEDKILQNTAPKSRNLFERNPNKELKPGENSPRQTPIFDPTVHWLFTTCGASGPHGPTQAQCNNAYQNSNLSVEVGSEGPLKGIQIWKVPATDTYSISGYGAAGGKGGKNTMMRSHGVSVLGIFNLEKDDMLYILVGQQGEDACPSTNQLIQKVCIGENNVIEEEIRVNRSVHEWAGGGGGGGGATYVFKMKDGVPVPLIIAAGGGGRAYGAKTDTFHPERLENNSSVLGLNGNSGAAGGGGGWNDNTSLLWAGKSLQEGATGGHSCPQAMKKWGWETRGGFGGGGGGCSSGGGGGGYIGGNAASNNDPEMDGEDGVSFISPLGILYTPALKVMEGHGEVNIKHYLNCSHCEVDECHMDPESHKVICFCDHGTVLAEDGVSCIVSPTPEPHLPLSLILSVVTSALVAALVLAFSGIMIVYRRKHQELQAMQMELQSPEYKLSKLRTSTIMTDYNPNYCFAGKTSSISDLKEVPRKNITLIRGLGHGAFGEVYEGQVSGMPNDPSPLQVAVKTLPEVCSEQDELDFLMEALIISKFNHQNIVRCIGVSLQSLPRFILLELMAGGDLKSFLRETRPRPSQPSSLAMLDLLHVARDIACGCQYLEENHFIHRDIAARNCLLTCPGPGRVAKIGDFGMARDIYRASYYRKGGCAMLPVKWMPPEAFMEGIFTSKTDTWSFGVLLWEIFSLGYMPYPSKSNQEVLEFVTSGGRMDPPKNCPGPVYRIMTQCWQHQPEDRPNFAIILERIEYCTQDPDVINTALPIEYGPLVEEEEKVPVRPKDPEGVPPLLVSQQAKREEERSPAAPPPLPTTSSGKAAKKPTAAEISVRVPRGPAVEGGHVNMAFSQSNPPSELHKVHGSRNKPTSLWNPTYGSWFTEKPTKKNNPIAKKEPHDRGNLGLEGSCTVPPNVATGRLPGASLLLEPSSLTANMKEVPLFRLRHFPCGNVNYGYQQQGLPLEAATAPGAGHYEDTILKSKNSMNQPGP

One may read the IC50 as the concentration at which inhibition is half-maximal. A lower IC50 goes with greater potency. Regarding `CCc1cc2c(cc1N1CCC(N3CCOCC3)CC1)C(C)(C)c1[nH]c3cc(C#CC4CC4)ccc3c1C2=O` [Example E26, 3-(cyclopropylethynyl)-9-ethyl-6,6-dimethyl-8-(4-morpholinopiperidin-1-yl)-5,6-dihydro-11H-be nzo[b]carbazol-11-one], the IC50 came to 38.4 nM at ALK kinase and 20.6 nM in assay [1].
Consider `CC#Cc1ccc2c3c([nH]c2c1)C(C)(C)c1cc(N2CCC(N4CCOCC4)CC2)c(CC)cc1C3=O` [Example E27, 9-ethyl-6,6-dimethyl-8-(4-morpholinopiperidin-1-yl)-3-(prop-1-yn-1-yl)-5,6-dihydro-11H-benzo[b]carbazol-11-one], for which the IC50 came out at 10.2 nM at ALK kinase and 110 nM in assay [1].
On to `C#Cc1ccc2c3c([nH]c2c1)C(C)(C)c1cc(N2CCC(NC)CC2)c(C#N)cc1C3=O` [Example E28, 3-ethynyl-6,6-dimethyl-8-(4-(methylamino)piperidin-1-yl)-11-oxo-6,11-dihydro-5H-benzo[b]carb azole-9-carbonitrile], for which the IC50 turned out to be 2.62 nM on ALK kinase and 5 nM in assay [1].
